Legend:
[1] = test system: A549-ACE2 infected with SARS-CoV-2; experiment: SARS-CoV-2 infection rate relative to DMSO; higher = more infection; settings: 24 h
A549-ACE2 [2] = experiment: phospholipidosis EC50; higher = less potent phospholipidosis inducer
Vero E6 [3] = experiment: relative viability EC50 (midpoint between 100% and the lowest measured viability); higher = less toxic; settings: 72 h
HepG2 [4] = experiment: as above; settings: 72 h
Caco-2 [5] = experiment: cell viability relative to DMSO; higher = less toxic; settings: 72 h
U2OS [6] = experiment: as above; settings: 72 h
Vero E6 [7] = experiment: as above; settings: 72 h
Calu-3 [8] = experiment: as above; settings: 72 h
HepG2 [9] = experiment: as above; settings: 72 h
[10] = test system: A549-ACE2 infected with SARS-CoV-2; experiment: cell count relative to DMSO; higher = less toxic; settings: 24 h
[11] = test system: A549-ACE2 infected with SARS-CoV-2; experiment: morphology score (similarity to uninfected cells); higher = more like uninfected cells; settings: 24 h
A549-ACE2 [12] = experiment: drug-induced phospholipidosis relative to tamoxifen; higher = more phospholipidosis
Caco-2 [13] = experiment: drug sensitivity score (DSS) for viability; higher = more toxic; extreme values may be limits of the assay; settings: 72 h
U2OS [14] = experiment: as above; settings: 72 h
Vero E6 [15] = experiment: as above; settings: 72 h
Calu-3 [16] = experiment: as above; settings: 72 h
HepG2 [17] = experiment: as above; settings: 72 h
Caco-2 [18] = experiment: relative viability EC50 (midpoint between 100% and the lowest measured viability); higher = less toxic; settings: 72 h
U2OS [19] = experiment: as above; settings: 72 h
Calu-3 [20] = experiment: as above; settings: 72 h

CCOC(=O)c1c(C)[nH]c2ccc3c(c12)CN1CCc2cc(OC)ccc2C1O3 (stereo not given)
Settings | SARS-CoV-2 infection rate [%] | cell count [%] | cell viability [%] | morphology score | phospholipidosis EC50 [µM]
A549-ACE2 [2], 24 h | – | – | – | – | 9.3
Caco-2 [5], 1 nM | – | – | 103 | – | –
Caco-2 [5], 10 nM | – | – | 98.8 | – | –
Caco-2 [5], 100 nM | – | – | 95.8 | – | –
Caco-2 [5], 1000 nM | – | – | 93.1 | – | –
Caco-2 [5], 10000 nM | – | – | 53.6 | – | –
Calu-3 [8], 1 nM | – | – | 102 | – | –
Calu-3 [8], 10 nM | – | – | 101 | – | –
Calu-3 [8], 100 nM | – | – | 109 | – | –
Calu-3 [8], 1000 nM | – | – | 98.4 | – | –
Calu-3 [8], 10000 nM | – | – | 53.6 | – | –
HepG2 [9], 1 nM | – | – | 93.2 | – | –
HepG2 [9], 10 nM | – | – | 92.8 | – | –
HepG2 [9], 100 nM | – | – | 97.2 | – | –
HepG2 [9], 1000 nM | – | – | 78.4 | – | –
HepG2 [9], 10000 nM | – | – | 29 | – | –
U2OS [6], 1 nM | – | – | 97.3 | – | –
U2OS [6], 10 nM | – | – | 100 | – | –
U2OS [6], 100 nM | – | – | 99.8 | – | –
U2OS [6], 1000 nM | – | – | 98.3 | – | –
U2OS [6], 10000 nM | – | – | 61 | – | –
Vero E6 [7], 1 nM | – | – | 102 | – | –
Vero E6 [7], 10 nM | – | – | 104 | – | –
Vero E6 [7], 100 nM | – | – | 92 | – | –
Vero E6 [7], 1000 nM | – | – | 91.5 | – | –
Vero E6 [7], 10000 nM | – | – | 80.1 | – | –
[1], 0.3 µM | 105 | – | – | – | –
[1], 3 µM | 59 | – | – | – | –
[1], 10 µM | 25 | – | – | – | –
[1], 30 µM | 26 | – | – | – | –
[10], 0.3 µM | – | 98 | – | – | –
[10], 3 µM | – | 112 | – | – | –
[10], 10 µM | – | 114 | – | – | –
[10], 30 µM | – | 92 | – | – | –
[11], 0.3 µM | – | – | – | -0.2 | –
[11], 3 µM | – | – | – | 0.69 | –
[11], 10 µM | – | – | – | 0.83 | –
[11], 30 µM | – | – | – | 0.42 | –

Settings | drug sensitivity score | relative viability EC50 [µM]
Caco-2 [13] | 3.6 | –
Calu-3 [16] | 2.6 | –
HepG2 [4] | – | 1.4
HepG2 [17] | 7.1 | –
U2OS [14] | 2.2 | –
Vero E6 [3] | – | > 10
Vero E6 [15] | 1.1 | –

drug-induced phospholipidosis [%], A549-ACE2 [12]
Settings | 0.3 µM | 0.833333 µM | 3.33333 µM | 6.66667 µM | 10 µM | 30 µM
24 h | 2.45 | 1.52 | 13.8 | 23.7 | 49.6 | 77.6
48 h | 1.49 | 1.91 | 7.41 | 9.35 | 10.9 | 99.9
72 h | 3.49 | 0.0297 | 4.37 | 8.63 | 10.6 | 83.4

FC(F)(F)c1cc(CO[C@H]2CCCN[C@H]2c2ccccc2)cc(C(F)(F)F)c1
Settings | SARS-CoV-2 infection rate [%] | cell count [%] | cell viability [%] | morphology score | phospholipidosis EC50 [µM]
A549-ACE2 [2], 24 h | – | – | – | – | 2.17
A549-ACE2 [2], 48 h | – | – | – | – | 2.92
A549-ACE2 [2], 72 h | – | – | – | – | 3.8
Caco-2 [5], 1 nM | – | – | 108 | – | –
Caco-2 [5], 10 nM | – | – | 106 | – | –
Caco-2 [5], 100 nM | – | – | 91.1 | – | –
Caco-2 [5], 1000 nM | – | – | 87.2 | – | –
Caco-2 [5], 10000 nM | – | – | 83.6 | – | –
Calu-3 [8], 1 nM | – | – | 97.4 | – | –
Calu-3 [8], 10 nM | – | – | 97.6 | – | –
Calu-3 [8], 100 nM | – | – | 102 | – | –
Calu-3 [8], 1000 nM | – | – | 101 | – | –
Calu-3 [8], 10000 nM | – | – | 18.1 | – | –
HepG2 [9], 1 nM | – | – | 104 | – | –
HepG2 [9], 10 nM | – | – | 97.9 | – | –
HepG2 [9], 100 nM | – | – | 97.8 | – | –
HepG2 [9], 1000 nM | – | – | 107 | – | –
HepG2 [9], 10000 nM | – | – | 88.4 | – | –
U2OS [6], 1 nM | – | – | 104 | – | –
U2OS [6], 10 nM | – | – | 101 | – | –
U2OS [6], 100 nM | – | – | 105 | – | –
U2OS [6], 1000 nM | – | – | 96.2 | – | –
U2OS [6], 10000 nM | – | – | 92.1 | – | –
Vero E6 [7], 1 nM | – | – | 96.7 | – | –
Vero E6 [7], 10 nM | – | – | 102 | – | –
Vero E6 [7], 100 nM | – | – | 102 | – | –
Vero E6 [7], 1000 nM | – | – | 99.1 | – | –
Vero E6 [7], 10000 nM | – | – | 89.4 | – | –
[1], 0.3 µM | 95 | – | – | – | –
[1], 3 µM | 57 | – | – | – | –
[1], 10 µM | 16 | – | – | – | –
[1], 30 µM | 42 | – | – | – | –
[10], 0.3 µM | – | 100 | – | – | –
[10], 3 µM | – | 113 | – | – | –
[10], 10 µM | – | 121 | – | – | –
[10], 30 µM | – | 69 | – | – | –
[11], 0.3 µM | – | – | – | 0.12 | –
[11], 3 µM | – | – | – | 0.72 | –
[11], 10 µM | – | – | – | 0.92 | –
[11], 30 µM | – | – | – | 0.01 | –

Settings | drug sensitivity score | relative viability EC50 [µM]
Caco-2 [13] | 2.5 | –
Caco-2 [18] | – | > 10
Calu-3 [16] | 4.4 | –
Calu-3 [20] | – | 3.27
HepG2 [4] | – | > 10
HepG2 [17] | 0 | –
U2OS [14] | 0 | –
U2OS [19] | – | > 10
Vero E6 [3] | – | > 10
Vero E6 [15] | 0 | –

drug-induced phospholipidosis [%], A549-ACE2 [12]
Settings | 0.3 µM | 0.833333 µM | 3.33333 µM | 6.66667 µM | 10 µM
24 h | 3.76 | 11.4 | 79.2 | 99.1 | 104
48 h | 4.92 | 7.68 | 61.5 | 89.2 | 97.2
72 h | 5.63 | 5.43 | 40.2 | 85 | 93

NC(=O)c1cnc(N[C@@H]2CCCC[C@@H]2N)nc1Nc1cccc(-n2nccn2)c1
Settings | SARS-CoV-2 infection rate [%] | cell count [%] | cell viability [%] | morphology score | phospholipidosis EC50 [µM]
A549-ACE2 [2], 24 h | – | – | – | – | 6.68
A549-ACE2 [2], 48 h | – | – | – | – | 4.26
Caco-2 [5], 1 nM | – | – | 94.6 | – | –
Caco-2 [5], 10 nM | – | – | 92.9 | – | –
Caco-2 [5], 100 nM | – | – | 91.5 | – | –
Caco-2 [5], 1000 nM | – | – | 93 | – | –
Caco-2 [5], 10000 nM | – | – | 44.7 | – | –
Calu-3 [8], 1 nM | – | – | 97.3 | – | –
Calu-3 [8], 10 nM | – | – | 94.5 | – | –
Calu-3 [8], 100 nM | – | – | 101 | – | –
Calu-3 [8], 1000 nM | – | – | 69.6 | – | –
Calu-3 [8], 10000 nM | – | – | 45.2 | – | –
HepG2 [9], 1 nM | – | – | 101 | – | –
HepG2 [9], 10 nM | – | – | 101 | – | –
HepG2 [9], 100 nM | – | – | 99.1 | – | –
HepG2 [9], 1000 nM | – | – | 95 | – | –
HepG2 [9], 10000 nM | – | – | 31.7 | – | –
U2OS [6], 1 nM | – | – | 99.7 | – | –
U2OS [6], 10 nM | – | – | 96.8 | – | –
U2OS [6], 100 nM | – | – | 106 | – | –
U2OS [6], 1000 nM | – | – | 93.9 | – | –
U2OS [6], 10000 nM | – | – | 46.1 | – | –
Vero E6 [7], 1 nM | – | – | 98.9 | – | –
Vero E6 [7], 10 nM | – | – | 100 | – | –
Vero E6 [7], 100 nM | – | – | 91.1 | – | –
Vero E6 [7], 1000 nM | – | – | 98.4 | – | –
Vero E6 [7], 10000 nM | – | – | 81.6 | – | –
[1], 0.3 µM | 104 | – | – | – | –
[1], 3 µM | 32 | – | – | – | –
[1], 10 µM | 72 | – | – | – | –
[1], 30 µM | 121 | – | – | – | –
[10], 0.3 µM | – | 94 | – | – | –
[10], 3 µM | – | 101 | – | – | –
[10], 10 µM | – | 50 | – | – | –
[10], 30 µM | – | 1 | – | – | –
[11], 0.3 µM | – | – | – | -0.18 | –
[11], 3 µM | – | – | – | 0.74 | –
[11], 10 µM | – | – | – | 0.43 | –
[11], 30 µM | – | – | – | 0.3 | –

Settings | drug sensitivity score | relative viability EC50 [µM]
Caco-2 [13] | 4.2 | –
Caco-2 [18] | – | 2.13
Calu-3 [16] | 6.7 | –
Calu-3 [20] | – | 0.917
HepG2 [4] | – | 2.57
HepG2 [17] | 4.5 | –
U2OS [14] | 3.9 | –
U2OS [19] | – | 2.24
Vero E6 [3] | – | > 10
Vero E6 [15] | 0.7 | –

drug-induced phospholipidosis [%], A549-ACE2 [12]
Settings | 0.3 µM | 0.833333 µM | 3.33333 µM | 6.66667 µM | 10 µM
24 h | 1.48 | 0.83 | 27.1 | 71.6 | 99.3
48 h | 4.57 | 2.08 | 16.9 | 73.9 | –
72 h | 3.49 | -1.55 | 12.3 | 69.8 | –

Reference: the supplement of paper PMC13380429
